Test results from patent US20260355196A1, “INHIBITORS AND DEGRADERS OF PIP4K PROTEIN” (Larkspur Biosciences, Inc., priority 2023, published 2026).

Target: T1, PIP4K2C (Homo sapiens, UniProt Q8TBX8)
T1 sequence (Q8TBX8 1-421): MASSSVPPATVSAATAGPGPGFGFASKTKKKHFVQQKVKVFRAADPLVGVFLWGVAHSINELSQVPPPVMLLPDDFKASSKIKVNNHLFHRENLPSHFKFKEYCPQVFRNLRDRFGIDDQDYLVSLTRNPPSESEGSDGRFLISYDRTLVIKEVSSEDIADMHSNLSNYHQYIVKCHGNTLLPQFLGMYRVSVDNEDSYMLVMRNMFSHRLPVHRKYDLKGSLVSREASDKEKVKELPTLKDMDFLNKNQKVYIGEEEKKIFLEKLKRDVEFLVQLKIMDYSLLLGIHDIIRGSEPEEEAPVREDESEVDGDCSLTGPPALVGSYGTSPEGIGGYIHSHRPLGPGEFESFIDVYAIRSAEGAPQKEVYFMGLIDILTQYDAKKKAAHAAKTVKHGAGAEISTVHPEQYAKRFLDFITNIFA
Test: HiBiT PIP4K2C degradation assay in MOLT-4 cells (endogenous PIP4K2C C-terminally tagged with HiBiT)
Type: cell-based
Set-up: untagged in primary human PBMCs and monocyte-derived dendritic cells
Details: 6 hours of incubation time, rather than 24 hours; MOLT-4, top concentration 10 micromolar; read-out: HiBIT-degradation MOLT4 PIP4k2C DC50 (6 hours, marked *)
Procedure, shortened: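 DC50 derived by Hill fit of luminescence from Nano-Glo HiBiT lytic detection. Cells were HiBiT knock-in MOLT-4 (C-terminal tag on endogenous PIP4K2C), exposed 6 h or 24 h at 37 C to compound, top concentration 10 micromolar, 3-fold steps, 10 points, duplicates.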

Row | SMILES | DC50 [µM]
1 | O=C1CCC(Nc2ccc(C3CCN(C[C@H]4CC[C@H](C(=O)N5CCC(Nc6ncc(F)c(-c7cccc(-c8ccc[nH]c8=O)c7)n6)CC5)CC4)CC3)c(F)c2)C(=O)N1 (stereo partly drawn) [Compound 654, 3-((3-fluoro-4-(1-(((trans)-4-(4-((5-fluoro-4-(3-(2-oxo-1,2-dihydropyridin-3-yl)phenyl)pyrimidin-2-yl)amino)piperidine-1-carbonyl)cyclohexyl)methyl)piperidin-4-yl)phenyl)amino)piperidine-2,6-dione] | < 0.5
2 | O=C1CCC(Nc2ccc(N3CCC(N4CCC(C(=O)N[C@H]5CC[C@H](Nc6ncc(F)c(-c7cccc(N8CCOCC8)c7)n6)CC5)CC4)C(F)C3)c(F)c2)C(=O)N1 (stereo partly drawn) [Compound 655, 1′-(4-((2,6-dioxopiperidin-3-yl)amino)-2-fluorophenyl)-3′-fluoro-N-((1r,4r)-4-((5-fluoro-4-(3-morpholinophenyl)pyrimidin-2-yl)amino)cyclohexyl)-[1,4′-bipiperidine]-4-carboxamide] | < 0.5
3 | O=C1CCC(Nc2ccc(N3CCC(N4CCC(C(=O)N[C@H]5CC[C@H](Nc6ncc(F)c(-c7cccc(-c8ccccc8)c7)n6)CC5)CC4)C(F)C3)c(F)c2)C(=O)N1 (stereo partly drawn) [Compound 656, N-((1r,4r)-4-((4-([1,1′-biphenyl]-3-yl)-5-fluoropyrimidin-2-yl)amino)cyclohexyl)-1′-(4-((2,6-dioxopiperidin-3-yl)amino)-2-fluorophenyl)-3′-fluoro-[1,4′-bipiperidine]-4-carboxamide] | < 0.5
4 | O=C1CCC(Nc2ccc(C3CCN([C@H]4CC[C@H](NC(=O)[C@H]5CC[C@H](Nc6ncc(F)c(-c7cccc(N8CCOCC8)c7)n6)CC5)CC4)CC3)c(F)c2)C(=O)N1 (stereo partly drawn) [Compound 657, trans-(1r,4R)—N-((1r,4R)-4-(4-(4-((2,6-dioxopiperidin-3-yl)amino)-2-fluorophenyl)piperidin-1-yl)cyclohexyl)-4-((5-fluoro-4-(3-morpholinophenyl)pyrimidin-2-yl)amino)cyclohexane-1-carboxamide] | < 0.5
5 | O=C1CCC(Nc2ccc(C3CCN([C@H]4CC[C@H](NC(=O)[C@H]5CC[C@H](Nc6ncc(F)c(-c7cccc(-c8ccccc8)c7)n6)CC5)CC4)CC3)c(F)c2)C(=O)N1 (stereo partly drawn) [Compound 658, trans-(1r,4R)-4-((4-([1,1′-biphenyl]-3-yl)-5-fluoropyrimidin-2-yl)amino)-N-((1r,4R)-4-(4-(4-((2,6-dioxopiperidin-3-yl)amino)-2-fluorophenyl)piperidin-1-yl)cyclohexyl)cyclohexane-1-carboxamide] | < 0.5
6 | O=C1CCC(Nc2ccc(C3CCN([C@H]4CC[C@H](C(=O)N[C@H]5CC[C@H](Nc6ncc(F)c(-c7cccc(N8CCOCC8)c7)n6)CC5)CC4)CC3)c(F)c2)C(=O)N1 (stereo partly drawn) [Compound 659, trans-(1r,4R)-4-(4-(4-((2,6-dioxopiperidin-3-yl)amino)-2-fluorophenyl)piperidin-1-yl)-N-((1r,4R)-4-((5-fluoro-4-(3-morpholinophenyl)pyrimidin-2-yl)amino)cyclohexyl)cyclohexane-1-carboxamide] | < 0.5
7 | O=C1CCC(Nc2ccc(C3CCN([C@H]4CC[C@H](C(=O)N[C@H]5CC[C@H](Nc6ncc(F)c(-c7cccc(-c8ccccc8)c7)n6)CC5)CC4)CC3)c(F)c2)C(=O)N1 (stereo partly drawn) [Compound 660, trans-(1r,4R)—N-((1r,4R)-4-((4-([1,1′-biphenyl]-3-yl)-5-fluoropyrimidin-2-yl)amino)cyclohexyl)-4-(4-(4-((2,6-dioxopiperidin-3-yl)amino)-2-fluorophenyl)piperidin-1-yl)cyclohexane-1-carboxamide] | < 0.5
8 | O=C1CCC(Nc2ccc(N3CCN([C@H]4CC[C@H](NC(=O)[C@H]5CC[C@H](Nc6ncc(F)c(-c7cccc(N8CCOCC8)c7)n6)CC5)CC4)CC3)c(F)c2)C(=O)N1 (stereo partly drawn) [Compound 661, trans-(1r,4R)—N-((1r,4R)-4-(4-(4-((2,6-dioxopiperidin-3-yl)amino)-2-fluorophenyl)piperazin-1-yl)cyclohexyl)-4-((5-fluoro-4-(3-morpholinophenyl)pyrimidin-2-yl)amino)cyclohexane-1-carboxamide] | < 0.5
9 | O=C1CCC(Nc2ccc(N3CCN([C@H]4CC[C@H](NC(=O)[C@H]5CC[C@H](Nc6ncc(F)c(-c7cccc(-c8ccccc8)c7)n6)CC5)CC4)CC3)c(F)c2)C(=O)N1 (stereo partly drawn) [Compound 662, trans-(1r,4R)-4-((4-([1,1′-biphenyl]-3-yl)-5-fluoropyrimidin-2-yl)amino)-N-((1r,4R)-4-(4-(4-((2,6-dioxopiperidin-3-yl)amino)-2-fluorophenyl)piperazin-1-yl)cyclohexyl)cyclohexane-1-carboxamide] | < 0.5
10 | O=C1CCC(Nc2ccc(C3CCN(C(=O)CC4(O)CCN(C(=O)O[C@H]5CC[C@H](Nc6ncc(F)c(-c7cccc(-n8ccccc8=O)c7)n6)CC5)CC4)CC3)c(F)c2)C(=O)N1 (stereo partly drawn) [Compound 663, trans-4-((5-fluoro-4-(3-(2-oxopyridin-1 (2H)-yl)phenyl)pyrimidin-2-yl)amino)cyclohexyl 4-(2-(4-(4-((2,6-dioxopiperidin-3-yl)amino)-2-fluorophenyl)piperidin-1-yl)-2-oxoethyl)-4-hydroxypiperidine-1-carboxylate] | < 0.5
11 | O=C1CCC(Nc2ccc(N3CCN(C4CCN(C(=O)O[C@H]5CC[C@H](Nc6ncc(F)c(-c7cccc(-c8ccccc8)c7)n6)CC5)CC4)CC3)c(F)c2)C(=O)N1 (stereo partly drawn) [Compound 664, trans-[4-[[5-fluoro-4-(3-phenylphenyl)pyrimidin-2-yl]amino]cyclohexyl]4-[4-[4-[(2,6-dioxo-3-piperidyl)amino]-2-fluoro-phenyl]piperazin-1-yl]piperidine-1-carboxylate] | < 0.5
12 | O=C1CCC(Nc2ccc(C3CCN(CC4(O)CCN(C(=O)[C@H]5CC[C@H](Nc6ncc(F)c(-c7cccc(N8CCOCC8)c7)n6)CC5)CC4)CC3)c(F)c2)C(=O)N1 (stereo partly drawn) [Compound 665, 3-((3-fluoro-4-(1-((1-((trans)-4-((5-fluoro-4-(3-morpholinophenyl)pyrimidin-2-yl)amino)cyclohexane-1-carbonyl)-4-hydroxypiperidin-4-yl)methyl)piperidin-4-yl)phenyl)amino)piperidine-2,6-dione] | < 0.5
13 | O=C1CCC(Nc2ccc(C3CCN(C4CC5(C4)CN(C(=O)O[C@H]4CC[C@H](Nc6ncc(F)c(-c7cccc(-n8ccccc8=O)c7)n6)CC4)C5)CC3)c(F)c2)C(=O)N1 (stereo partly drawn) [Compound 666, (trans)-4-((5-fluoro-4-(3-(2-oxopyridin-1 (2H)-yl)phenyl)pyrimidin-2-yl)amino)cyclohexyl 6-(4-(4-((2,6-dioxopiperidin-3-yl)amino)-2-fluorophenyl)piperidin-1-yl)-2-azaspiro[3.3]heptane-2-carboxylate] | < 0.5
14 | O=C1CCC(Nc2ccc(N3CCN(C[C@H]4CC[C@H](C(=O)N5CCC(Nc6ncc(F)c(-c7cccc(N8CCCOC8=O)c7)n6)CC5)CC4)CC3)c(F)c2)C(=O)N1 (stereo partly drawn) [Compound 667, 3-((3-fluoro-4-(4-((trans-4-(4-((5-fluoro-4-(3-(2-oxo-1,3-oxazinan-3-yl)phenyl)pyrimidin-2-yl)amino)piperidine-1-carbonyl)cyclohexyl)methyl)piperazin-1-yl)phenyl)amino)piperidine-2,6-dione] | < 0.5
15 | O=C1CCC(Nc2ccc(N3CCC(N4CCN(C(=O)O[C@H]5CC[C@H](Nc6ncc(F)c(-c7cccc(-n8ccccc8=O)c7)n6)CC5)CC4)C(F)C3)c(F)c2)C(=O)N1 (stereo partly drawn) [Compound 668, trans-[4-[[5-fluoro-4-[3-(2-oxo-1-pyridyl)phenyl]pyrimidin-2-yl]amino]cyclohexyl]4-[1-[4-[(2,6-dioxo-3-piperidyl)amino]-2-fluoro-phenyl]-3-fluoro-4-piperidyl]piperazine-1-carboxylate] | > 5
16 | O=C1CCC(Nc2ccc(C3CCN(C(=O)C4CCN(C(=O)[C@H]5CC[C@H](Nc6ncc(F)c(-c7cccc(-n8ccccc8=O)c7)n6)CC5)CC4)CC3)c(F)c2)C(=O)N1 (stereo partly drawn) [Compound 669, trans-3-((3-fluoro-4-(1-(1-(4-((5-fluoro-4-(3-(2-oxopyridin-1 (2H)-yl)phenyl)pyrimidin-2-yl)amino)cyclohexane-1-carbonyl)piperidine-4-carbonyl)piperidin-4-yl)phenyl)amino)piperidine-2,6-dione] | < 0.5
17 | O=C1CCC(Nc2ccc(C3CCN(C[C@H]4CC[C@H](C(=O)N5CCC(Nc6ncc(F)c(-c7cccc(N8CCOCC8)c7)n6)CC5)CC4)CC3)c(F)c2)C(=O)N1 (stereo partly drawn) [Compound 671, trans-3-((3-fluoro-4-(1-((4-(4-((5-fluoro-4-(3-morpholinophenyl)pyrimidin-2-yl)amino)piperidine-1-carbonyl)cyclohexyl)methyl)piperidin-4-yl)phenyl)amino)piperidine-2,6-dione] | < 0.5

Same assay, conditions: read-out: HiBIT-degradation MOLT4 PIP4k2C DC50 (6 hours, marked *); 6 hours of incubation time, rather than 24 hours; MOLT-4, top concentration 10 micromolar

Row | SMILES | DC50 [µM]
18 | O=C1CCC(Nc2ccc(N3CCN(C[C@H]4CC[C@H](C(=O)N5CCC(Nc6ncc(F)c(-c7cccc(N8CCOCC8)c7)n6)CC5)CC4)CC3)c(F)c2)C(=O)N1 (stereo partly drawn) [Compound 670, 3-((3-fluoro-4-(4-((trans-4-(4-((5-fluoro-4-(3-morpholinophenyl)pyrimidin-2-yl)amino)piperidine-1-carbonyl)cyclohexyl)methyl)piperazin-1-yl)phenyl)amino) piperidine-2,6-dione] | > 5
